According to the supplement of paper PMC10307832:

How the values were obtained:
Assay in all cases: relative viability (nuclei count vs DMSO), 5 days (fraction); higher = more cells survive
AZD1208 + Alpelisib = compound: N[C@@H]1CCCN(c2c(/C=C3\SC(=O)NC3=O)cccc2-c2ccccc2)C1 [AZD1208] + Cc1nc(NC(=O)N2CCC[C@H]2C(N)=O)sc1-c1ccnc(C(C)(C)C(F)(F)F)c1 [Alpelisib] (partner 2 µM)
Method in brief: (§1)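 Dosing by pin tool came one day after lung cancer cell lines were seeded in 1536-well plates, using either one drug or a fixed anchor-drug dose plus five library-drug doses (not always all listed) in √10 steps. After 5 days, nuclei were counted on 4× images. Relative viability is treated-well nuclei count divided by vehicle-well nuclei count, and values are medians of duplicate plates.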

XMD14-99 + Lapatinib = compound: CN1CCN(CC1)C2=CC(=C(C=C2)NC3=NC(=C(S3)C(=O)C4=C(C=CC=C4Cl)Cl)N)OC [XMD14-99] + CS(=O)(=O)CCNCc1ccc(-c2ccc3ncnc(Nc4ccc(OCc5cccc(F)c5)c(Cl)c4)c3c2)o1 [Lapatinib] (partner 2 µM)
Method in brief: as §1

XMD14-99 + Pictilisib = compound: CN1CCN(CC1)C2=CC(=C(C=C2)NC3=NC(=C(S3)C(=O)C4=C(C=CC=C4Cl)Cl)N)OC [XMD14-99] + CS(=O)(=O)N1CCN(Cc2cc3nc(-c4cccc5[nH]ncc45)nc(N4CCOCC4)c3s2)CC1 [Pictilisib] (partner 1 µM)
Method in brief: as §1

AZD1208 + Lapatinib = compound: N[C@@H]1CCCN(c2c(/C=C3\SC(=O)NC3=O)cccc2-c2ccccc2)C1 [AZD1208] + CS(=O)(=O)CCNCc1ccc(-c2ccc3ncnc(Nc4ccc(OCc5cccc(F)c5)c(Cl)c4)c3c2)o1 [Lapatinib] (partner 2 µM)
Method in brief: as §1

| Cell Line | relative viability (AZD1208 + Alpelisib; first compound 0.08 µM) | relative viability (AZD1208 + Alpelisib; first compound 0.253 µM) | relative viability (AZD1208 + Alpelisib; first compound 0.8 µM) | relative viability (AZD1208 + Alpelisib; first compound 2.53 µM) | relative viability (AZD1208 + Alpelisib; first compound 8 µM) | relative viability (XMD14-99 + Lapatinib; first compound 0.08 µM) | relative viability (XMD14-99 + Lapatinib; first compound 0.8 µM) | relative viability (XMD14-99 + Lapatinib; first compound 2.53 µM) | relative viability (XMD14-99 + Lapatinib; first compound 8 µM) | relative viability (XMD14-99 + Pictilisib; first compound 0.08 µM) | relative viability (XMD14-99 + Pictilisib; first compound 0.8 µM) | relative viability (XMD14-99 + Pictilisib; first compound 2.53 µM) | relative viability (XMD14-99 + Pictilisib; first compound 8 µM) | relative viability (AZD1208 + Lapatinib; first compound 0.08 µM) | relative viability (AZD1208 + Lapatinib; first compound 0.253 µM) | relative viability (AZD1208 + Lapatinib; first compound 0.8 µM) | relative viability (AZD1208 + Lapatinib; first compound 2.53 µM) | relative viability (AZD1208 + Lapatinib; first compound 8 µM) |
| --- | --- | --- | --- | --- | --- | --- | --- | --- | --- | --- | --- | --- | --- | --- | --- | --- | --- | --- |
| Calu-6 | 0.993 | 1.03 | 0.889 | 0.918 | 0.818 | 0.996 | 0.934 | 0.936 | 0.735 | 0.881 | 0.824 | 0.785 | 0.57 | 1.04 | 1.19 | 1.04 | 1.08 | 1.03 |
| NCI-H2009 | 1.13 | 1.17 | 1.07 | 1.13 | 1.13 | 1.03 | 0.997 | 0.834 | 0.666 | 0.752 | 0.948 | 0.85 | 0.556 | 0.982 | 1.21 | 0.817 | 0.742 | 0.893 |
| SK-LU-1 | 0.792 | 0.913 | 0.979 | 0.9 | 0.76 | 0.969 | 0.841 | 0.74 | 0.565 | 0.554 | 0.576 | 0.545 | 0.344 | 0.802 | 0.864 | 0.826 | 0.831 | 0.839 |
| NCI-H2347 | 1.01 | 0.936 | 1.07 | 0.904 | 0.96 | 0.957 | 0.907 | 0.793 | 0.659 | 0.519 | 0.871 | 0.477 | 0.431 | 1.09 | 1.11 | 0.896 | 0.843 | 0.97 |
| HCC-366 | 0.453 | 0.362 | 0.337 | 0.27 | 0.227 | 1.06 | 1.06 | 1.13 | 0.854 | 0.137 | 0.143 | 0.156 | 0.149 | 1.06 | 1.17 | 0.951 | 1.13 | 0.933 |
| EMC-BAC-2 | 0.752 | 0.74 | 0.636 | 0.701 | 0.62 | 0.87 | 0.905 | 0.859 | 0.724 | 0.573 | 0.519 | 0.519 | 0.413 | 0.827 | 0.889 | 0.783 | 0.835 | 0.723 |
| NCI-H3122 | 0.686 | 0.68 | 0.647 | 0.583 | 0.722 | 0.982 | 0.965 | 0.879 | 0.746 | 0.563 | 0.474 | 0.446 | 0.326 | 1.08 | 0.984 | 1 | 1.05 | 1.15 |
| NCI-H358 | 0.64 | 0.709 | 0.546 | 0.592 | 0.569 | 0.45 | 0.45 | 0.317 | 0.231 | 0.327 | 0.301 | 0.229 | 0.176 | 0.343 | 0.44 | 0.38 | 0.36 | 0.35 |
| NCI-H1944 | 0.864 | 0.762 | 0.715 | 0.726 | 0.6 | 0.748 | 0.828 | 0.843 | 0.613 | 0.325 | 0.335 | 0.337 | 0.269 | 0.8 | 0.788 | 0.708 | 0.712 | 0.484 |
| EPLC-272H | 0.938 | 0.949 | 0.807 | 0.807 | 0.894 | 0.927 | 0.943 | 0.924 | 0.846 | 0.338 | 0.338 | 0.284 | 0.247 | 0.987 | 0.866 | 0.841 | 0.825 | 0.717 |
| EBC-1 | 0.783 | 0.806 | 0.885 | 0.75 | 0.817 | 0.252 | 0.207 | 0.2 | 0.173 | 0.481 | 0.391 | 0.318 | 0.26 | 0.195 | 0.249 | 0.193 | 0.218 | 0.2 |
| NCI-H1915 | 1.05 | 1.09 | 1.05 | 1.03 | 1.03 | 1 | 0.974 | 0.959 | 0.911 | 0.927 | 0.934 | 0.902 | 0.595 | 0.985 | 1.08 | 1.02 | 0.962 | 0.977 |
| NCI-H647 | 1.03 | 1.28 | 1.06 | 1.06 | 1.01 | 1.11 | 1.03 | 1.13 | 0.842 | 0.421 | 0.412 | 0.472 | 0.379 | 1.04 | 1.58 | 1.04 | 0.97 | 0.742 |
| NCI-H1299 | 1.08 | 1.08 | 1.07 | 1.03 | 1.13 | 0.924 | 0.925 | 0.925 | 0.813 | 0.668 | 0.637 | 0.623 | 0.505 | 0.984 | 0.938 | 0.96 | 1 | 0.945 |
| NCI-H23 | 0.658 | 0.58 | 0.493 | 0.564 | 0.561 | 1.08 | 1.29 | 1.14 | 0.881 | 0.46 | 0.547 | 0.526 | 0.383 | 1.06 | 1.22 | 0.945 | 0.98 | 0.735 |
| IA-LM | 0.83 | 0.617 | 0.826 | 0.837 | 0.569 | 0.821 | 0.603 | 0.511 | 0.301 | 0.34 | 0.256 | 0.157 | 0.191 | 0.766 | 0.948 | 0.766 | 0.621 | 0.633 |
| NCI-H650 | 1.11 | 1.15 | 1.07 | 0.967 | 0.823 | 0.92 | 0.956 | 0.663 | 0.774 | 0.931 | 0.992 | 0.805 | 0.72 | 1.06 | 0.771 | 1.06 | 0.648 | 0.817 |
